Where “and” joins values, the source holds several entries; their conditions need not be identical. Equal values may be shown once. Entries after “also recorded” stand apart in the source; their conditions may differ. Read-outs that look alike come from different tables or passages of the source. Values belong to the compound of their own block, whether it stands above or below them.
Columns and labels:
[1] = cited from earlier work
[2] = transdermal; Balfour 1990; cited from earlier work
clinical = test: clinical; set-up: species or system postmenopausal women; details: human, in vivo
Protocol: The duration of the study was 3 days, thus 3 dose application were applied. Blood samples were taken at 0 h (basal value), 2, 6, 12, 24, 30, 36, 48, 54, 60, and 72 hs after the initiation of the study. Estradiol and norethindrone serum levels were determined by time-resolved fluoroimmunoassay and by enzyme immunoassay respectively.

[3] = cited from earlier work; for Enhancement factor: normalized skin permeation rate with/without enhancer
[4] = In vitro permeation through abdominal guinea pig skin (vertical diffusion cell, HPLC); format: in vitro ADME; details: for penetration enhancement at early and late times (in words): early 8 hs, late 16, 24 hs, occlusive
Source text: FIG. 3 an apparatus "Hanson P/N 57-VC" (vertical diffusion cell) is schematically represented 3 wherein:
The term "occlusive condition" used for the experimental tests carried out with the apparatus described in FIG. 3, means that the donor chamber (2) of the diffusion is closed by the top plate (3) i.e. not in communication with the external air. On the contrary the term "non occlusive condition" means that the top plate (3) has a hole allowing the free interaction between the formulation to be tested and the external air permitting the evaporation of the volatile solvents.
Furthermore, in vitro permeation experiments through abdominal guinea pig skin was made using the diffusion chamber that is schematically shown in FIG. 3.
Female guinea pigs, 8 to 16 months of age were shaved on their abdominal skin 72 hs. before sacrifice by cervical dislocation. […] A section of full thickness abdominal skin was surgically excised and mounted between the sections of a vertical diffusion cell having 1.77 sqcm of surface area, the epidermal facing up. A given amount of the pharmaceutical formulations exemplified above were spread over the epidermal layer whilst the dermal layer contact with a solution of sodium lauryl sulfate (SDS), at 34° C.
The experiments were conducted in two different conditions: in occlusive condition with a glass stopper, which avoid the evaporating of the volatile solvents, and in non occlusive condition, whereas the stopper used allow the evaporation of the volatile solvents.

[5] = Whitehead 1990; cited from earlier work
[6] = enhancer: Decylmethyl sulfoxide

SMILES: C[C@]12CC[C@@H]3c4ccc(O)cc4CC[C@H]3[C@@H]1CC[C@@H]2O [Estradiol, 17-β-estradiol]
- therapeutically effective daily dose of estrogen ([1]; Powers 1985): 40 to 50 µg/day
- serum levels of estradiol required for clinical efficacy ([1]; reviewed by Powers): 40 to 60 pg/mL
- effects on gonadotrophins, vaginal epithelium, bone resorption and menopausal symptoms [2]: comparable to those of oral and subcutaneous estrogens
- undesirable effects of oral estrogen on hepatic metabolism [2]: avoided
- Serum Levels of Estradiol (mean) (clinical): 6,37 pg/ml
- concentration at 2 h (clinical; topical or ocular): 0.0328 ng/mL
- concentration at 6 h (clinical; topical or ocular): 0.0205 ng/mL
- concentration at 12 h (clinical; topical or ocular): 0.0268 ng/mL
- concentration at 24 h (clinical; topical or ocular): 0.0276 ng/mL
- concentration at 30 h (clinical; topical or ocular): 0.0393 ng/mL
- concentration at 36 h (clinical; topical or ocular): 0.0303 ng/mL
- concentration at 48 h (clinical; topical or ocular): 0.0359 ng/mL
- concentration at 54 h (clinical; topical or ocular): 0.0652 ng/mL
- concentration at 60 h (clinical; topical or ocular): 0.0487 ng/mL
- concentration at 72 h (clinical; topical or ocular): 0.0437 ng/mL
- Enhancement factor ([3]; enhancer: Azone): 20.17
- Enhancement factor [3, 6]: 12.59
- Enhancement factor ([3]; enhancer: Propyl myristate): 9.33
- Enhancement factor ([3]; enhancer: Propyl oleate): 14.62

SMILES: C[C@]12CCC(=O)C=C1CC[C@@H]1[C@@H]2[C@@H](O)C[C@@]2(C)[C@H]1CC[C@]2(O)C(=O)CO [Hydrocortisone]
- Enhancement factor ([3]; enhancer: Azone): 61.3
- Enhancement factor [3, 6]: 25.23
- Enhancement factor ([3]; enhancer: Propyl myristate): 4.57
- Enhancement factor ([3]; enhancer: Propyl oleate): 5.01

SMILES: COc1ccc2c(c1)c(CC(=O)O)c(C)n2C(=O)c1ccc(Cl)cc1 [Indomethacin]
- Enhancement factor ([3]; enhancer: Azone): 14.49
- Enhancement factor [3, 6]: 15.67
- Enhancement factor ([3]; enhancer: Propyl myristate): 3.77
- Enhancement factor ([3]; enhancer: Propyl oleate): 4.67

SMILES: C#C[C@]1(O)CC[C@H]2[C@@H]3CCC4=CC(=O)CC[C@@H]4[C@H]3CC[C@@]21C [Norethindrone, norethindrone]
- Serum Levels of Norethindrone (mean) (clinical): 0.093 ng/mL
- Serum Levels of Norethindrone (mean) (clinical; topical or ocular, 2 h): 1.407 ng/mL
- Serum Levels of Norethindrone (mean) (clinical; topical or ocular, 6 h): 1.394 ng/mL
- Serum Levels of Norethindrone (mean) (clinical; topical or ocular, 12 h): 1.908 ng/mL
- Serum Levels of Norethindrone (mean) (clinical; topical or ocular, 24 h): 2.695 ng/mL
- Serum Levels of Norethindrone (mean) (clinical; topical or ocular, 30 h): 3.461 ng/mL
- Serum Levels of Norethindrone (mean) (clinical; topical or ocular, 36 h): 3.096 ng/mL
- Serum Levels of Norethindrone (mean) (clinical; topical or ocular, 48 h): 3.713 ng/mL
- Serum Levels of Norethindrone (mean) (clinical; topical or ocular, 54 h): 5.61 ng/mL
- Serum Levels of Norethindrone (mean) (clinical; topical or ocular, 60 h): 4.904 ng/mL
- Serum Levels of Norethindrone (mean) (clinical; topical or ocular, 72 h): 4.899 ng/mL

SMILES: CC(=O)[C@H]1CC[C@H]2[C@@H]3CCC4=CC(=O)CC[C@]4(C)[C@H]3CC[C@]12C [Progesterone]
- Enhancement factor ([3]; enhancer: Azone): 5.96
- Enhancement factor [3, 6]: 11.04
- Enhancement factor ([3]; enhancer: Propyl myristate): 4.56
- Enhancement factor ([3]; enhancer: Propyl oleate): 5.36

SMILES: CCCCCC(=O)O [caproic acid]
- enhancement of skin permeation of progesterone by fatty acids ([3]; progesterone, saturated fatty acid chain length, Chien): major enhancement effect

SMILES: CCCCCCCCCC(=O)O [decanoic acid]
- enhancement for estradiol by fatty acids ([3]; estradiol, U.S. Pat. No. 5,145,682): better enhancer for estradiol

SMILES: CCOCCOCCO [diethylene glycol monoethyl ether]
- penetration enhancement at early and late times (in words) [4]: excellent penetration enhancer at late times (16, 24 hs); also recorded: good penetration enhancer for late times; also recorded: enhances the permeation rates of the hormones in the later times

SMILES: CCCCCCCCCCCC(=O)O [lauric acid]
- enhancer comparison for naloxone ([3]; naloxone, Brian and Walters): better enhancer than lauryl alcohol

SMILES: CCCCCCCCCCCCO [lauryl alcohol]
- norethindrone acetate permeation enhancement (in words) ([4]; comparison of enhancers): two folds higher; also recorded: greater; also recorded: highest enhancement factor for norethindrone acetate; also recorded: most adequate enhancer
- penetration enhancement at early and late times (in words) [4]: good penetration enhancer at early time (8 hs); also recorded: good penetration enhancer for early times; also recorded: higher enhancement factor in the early times

- norethindrone acetate permeation enhancement (in words) ([4]; comparison of enhancers): greater
SMILES: CCCCCCCCCCO [n-decanol]

SMILES: C#C[C@]1(OC(C)=O)CC[C@H]2[C@@H]3CCC4=CC(=O)CC[C@@H]4[C@H]3CC[C@@]21C [norethindrone acetate]
- transdermal dose required to oppose estrogen hyperstimulation of the endometrium / therapeutically effective daily dose of progestin [5]: 200 to 300 µg/day and 200 to 250 µg/day

- estradiol permeation enhancement (in words) ([4]; comparison of enhancers): highest enhancement factor for estradiol
SMILES: CCCCCCCC/C=C\CCCCCCCCO [oleyl alcohol]
